Data taken from PMC3071021 (Bioorganic & medicinal chemistry letters, 2011).

Key:
Jurkat cells = assay: Standard MTT assay, Jurkat cells; format: cell-based; conditions: listed as CD4.M3
[1] = test system: T6-17 (HER2/neu expressing cells); assay: Standard MTT assay, T6-17 cells; format: cell-based; conditions: listed as CD4.M3

Substance: [Cys^3-Cys^12]-HAbuFCYIGEVEDQCY-OH (disulfide) [CD4, reference compound]
- % inhibition of cell growth (Jurkat cells): unaffected
- % inhibition of cell growth [1]: unaffected
